Legend:
Mouse (3T3) nuclei = assay: Single-cell ATAC-seq in droplets (Example 14, FIG. 11); format: cell-based
Description: Mouse (3T3) nuclei were treated with 0 μM, 30 μM, and 60 μM Pitstop-2 during cell lysis and transposition of nuclei. Pitstop-2 was used to open up nuclear pores and to allow increased transposition of open chromatin. A defined number of transposed nuclei set to ensure single nuclei occupancy was loaded into a QX200 Bio-Rad droplet generator with indexed beads designed to produce single-cell ATAC-seq libraries. Single cell libraries were PCR-amplified in droplets and then subjected to purification, and sequencing on a NextSeq® 550 Sequencing System.
Treatment of nuclei with Pitstop-2 allows more efficient transposition and increased unique coverage of open chromatin. In the presence of Pitstop-2, transposases target additional open chromatin regions outside of transcription start sites (TSS) (see FIG. 11B). […] Also observed were an alignment of pooled ATAC-seq reads generated with 0 μM, 30 μM, and 60 μM Pitstop-2 around GAPDH gene at chromosome 6 and an alignment of pooled ATAC-seq reads generated with 0 μM, 30 μM, and 60 μM Pitstop-2 around RPL10 gene at chromosome X (data not shown).

unpurified nuclei = assay: Yield of ATAC-seq library from unpurified nuclei (Example 8, Table 3); format: cell-based; conditions: for Yield (nM) 150-1000 bp: 3% DMSO
Description: The concentration of each library was determined on the BioAnalyzer between the library range of 150-1000 bps plotted for each Pitstop-2 concentration (FIG. 7A). Additional experiments run at varying Pitstop-2 concentrations (5, 10, 30, 50, 100, and 200 μM) produced enhanced library yield over libraries produced in the absence of Pitstop-2 as shown by spectrophotometric analysis (Table 3).

Isolated nuclei [1] = assay: qPCR (Cq) of library yield from nuclei transposed with Nextera Tn5 in presence of Pitstop-2 (Example 4, Table 1A); format: cell-based, human; conditions: for Cq-Pitstop-2: 50,000 nuclei, 25 cy qPCR
Description: Using a standard cell culture protocol, 1×10^6 K562 cells (human lymphoma cell line) were collected from tissue culture flasks for tagmentation reaction. All cell pelleting/centrifugation steps were performed at 300×g for 3 min at 4° C. Freshly isolated cells were centrifuged and re-suspended in ice cold PBS (phosphate-buffered saline). The cells were pelleted again and incubated on ice while being suspended in 200 μL ice cold cell lysis buffer (Tris/NaCl/octylphenoxypolyethoxyethanol (IGEPAL CA-630 detergent)) for 5 min. Following this, nuclei were spun down for 3 min at 300×g, washed once with 200 of lysis buffer, and pelleted nuclei were transposed with Nextera Tn5 Transposase (TDE1) for 30 min at 55° C. in 1× Tagment DNA buffer (PN:15027866), supplemented with ([…]) or ([…]). Nuclei from each sample were pelleted and most of the supernatant was carefully removed.
(§1) One Cq value roughly corresponds to two fold difference in DNA Input. […]

nuclei [2] = assay: Agarose gel of indexed, amplified libraries of transposed nuclear DNA (Example 6, FIG. 5); format: cell-based; conditions: Pitstop-2 0, 10, 30, 60 μM
Description: Genomic DNA transposed with Nextera Tn5 Kit in the presence of Pitstop-2 (at concentrations of 0, 10, 30, and 60 μM) as described above was released from nuclei and was captured onto indexed beads containing oligonucleotide capture sequences. Bead-captured DNA was further gap-fill ligated to covalently link both strands of genomic DNA to common sequences (including unique indices) and amplified by PCR. […] Band intensity increases correlated with increases in Pitsthop-2 concentration. Corresponding DNA fragments covered by distinct number of nucleosomes of resulted libraries contained “nucleosomal banding,” indicating successful ATAC-seq tagmentation at regions free of nucleosomes.

nuclei [3] = assay: Flow cytometry of bead capture of FAM-labeled transposed nuclear material (Table 2); format: cell-based
[4] = system: K562 (human lymphoma cell line) nuclear content; assay: Sequencing of transposition (ATAC-seq) libraries from K562 nuclear content (Example 5, FIG. 4); format: cell-based
Excerpt: DNA libraries were generated from K562 (human lymphoma cell line) nuclear content using methods as described in the preceding examples. […] As shown in FIG. 4A for the ATAC-seq profile over a portion of Chr 12, the libraries had targeted predominantly intergenic regions at all Pitstop-2 concentrations.

[5] = system: Isolated nuclei of K562 cells; assay: Visualization of FAM-labeled transposome access to nuclei (Example 3, FIG. 3); format: cell-based, human; conditions: Pitstop-2 10 μM, 30 μM, 60 μM vs 2% DMSO control
Description: Using a standard cell culture protocol, 1×10^6 K562 cells (human lymphoma cell line) were collected from tissue culture flasks for tagmentation reaction. All cell pelleting/centrifugation steps were performed at 300×g for 3 min at 4° C. Freshly isolated cells were centrifuged and re-suspended in ice cold PBS (phosphate-buffered saline). The cells were pelleted again and incubated on ice while being suspended in 200 μL ice cold cell lysis buffer (Tris/NaCl/octylphenoxypolyethoxyethanol (IGEPAL CA-630 detergent)) for 5 min. Following this, nuclei were spun down for 3 min at 300×g, washed once with 200 of lysis buffer, and pelleted nuclei were transposed with Nextera Tn5 Transposase (TDE1) for 30 min at 55° C. in 1× Tagment DNA buffer (PN:15027866), supplemented with (a) Pitstop-2 in DMSO to yield 30 μM final Pitstop-2 concentration (test nuclei) or (b) 2% DMSO (control nuclei). Nuclei from each sample were pelleted and most of the supernatant was carefully removed.
The method of Example 1 was used to import FAM-labeled transposome complexes into nuclear compartments. Nuclei were isolated and treated as described in Example 1 using Nextera Tn5 transposase complexed with transposon sequence labeled during oligonucleotide synthesis at the 5′-end with FAM (6-FAM, Integrated DNA Technologies), and using the 2% DMSO control, and varying concentrations of Pitstop-2 (10 μM, 30 μM, and 60 μM).

Isolated nuclei [6] = assay: qPCR (Cq) of library yield, varying Pitstop-2 with Tn5 and TsTn5 transposases (Table 1B); format: cell-based, human
Excerpt: as §1
Additional experiments were run using varying concentrations of Pitstop-2 and the Tn5 and TsTn5 transposases.

nuclei of K562 cells = assay: Reverse transcription/quantitative PCR of cDNA synthesis from nuclear mRNA (Example 9, Table 4); format: cell-based, human
Description: Pitstop-2 treatment increases RNA output by improving cDNA synthesis from nuclear mRNA. K562 cells were lysed with 0.1% NP40. The nuclei and cytoplasm were separated and the nuclei were washed twice, then a reverse transcription/quantitative PCR protocol was performed (ThermoFisher Maxima HT RT kit, Kapa qPCR kit, RPLPO PCR primer) with (a) no additive, (b) 0.1% SDS, or (c) 30 μM Pitstop-2. The deltaCt between no reverse transcription and reverse transcription was used as the metric to report relative cDNA synthesis efficiency. Pitstop-2 treatment boosted cDNA synthesis from nuclei 4-5 fold over untreated nuclei (Table 4).

O=C1N=C(NS(=O)(=O)c2cccc3ccccc23)SC1=Cc1ccc(Br)cc1 [Pitstop-2, N-[5-(4-bromobenzylidene)-4-oxo-4,5-dihydro-1,3-thiazol-2-yl]naphthalene-1-sulfonamide]
ATAC-seq peak overlap (MACS-2), integrity of the assay (Mouse (3T3) nuclei; 0, 30, 60 μM Pitstop-2, FIG. 11C): did not change the overall integrity of the assay | total number of unique reads (Mouse (3T3) nuclei; increasing Pitstop-2 (0, 30, 60 μM), barcodes >1 k, >10 k, >100 k unique reads, FIG. 11A): increase in the total number of unique reads | Yield (nM) 150-1000 bp (unpurified nuclei; Pitstop-2 5 μM): 7.3 nM | Yield (nM) 150-1000 bp (unpurified nuclei; Pitstop-2 10 μM): 9.3 nM | Yield (nM) 150-1000 bp (unpurified nuclei; Pitstop-2 20 μM): 20.6 nM | Yield (nM) 150-1000 bp (unpurified nuclei; Pitstop-2 50 μM): 23.7 nM | Yield (nM) 150-1000 bp (unpurified nuclei; Pitstop-2 100 μM): 15.7 nM | Yield (nM) 150-1000 bp (unpurified nuclei; Pitstop-2 200 μM): 8.7 nM | yield of ATAC-seq library on BioAnalyzer (unpurified nuclei; Pitstop-2 10 and 100 μM, FIG. 7A): increased the yield of an ATAC-seq library | library yield from intact nuclei vs untreated control (Isolated nuclei [1]; Pitstop-2 0 to 80 uM): increases library yield compared to the untreated control | ΔCq-Pitstop-2 vs. Control (Isolated nuclei [1]; Pitstop-2 5 uM vs 0.05% DMSO control): −0.2 | Cq-Pitstop-2 (Isolated nuclei [1]; Pitstop-2 5 uM): 19.91 | ΔCq-Pitstop-2 vs. Control (Isolated nuclei [1]; Pitstop-2 10 uM vs 0.10% DMSO control): −0.65 | Cq-Pitstop-2 (Isolated nuclei [1]; Pitstop-2 10 uM): 20.00 | ΔCq-Pitstop-2 vs. Control (Isolated nuclei [1]; Pitstop-2 20 uM vs 0.20% DMSO control): −1.48 | Cq-Pitstop-2 (Isolated nuclei [1]; Pitstop-2 20 uM): 19.36 | ΔCq-Pitstop-2 vs. Control (Isolated nuclei [1]; Pitstop-2 40 uM vs 0.40% DMSO control): −1.26 | Cq-Pitstop-2 (Isolated nuclei [1]; Pitstop-2 40 uM): 19.94 | ΔCq-Pitstop-2 vs. Control (Isolated nuclei [1]; Pitstop-2 80 uM vs 0.80% DMSO control): −2.06 | Cq-Pitstop-2 (Isolated nuclei [1]; Pitstop-2 80 uM): 19.24 | transposition yield by agarose gel electrophoresis (nuclei [2]): clear increase in transposition yield | Mean (MFU), bead capture (nuclei [3]; Pitstop-2 10 μM): 1297 MFU | Mean (MFU), bead capture (nuclei [3]; Pitstop-2 30 μM): 1439 MFU | Mean (MFU), bead capture (nuclei [3]; Pitstop-2 60 μM): 1488 MFU | bead capture rates of FAM-labeled transposed libraries (nuclei [3]; Pitstop-2 treatment vs control pools): enhanced bead capture rates over control pools | ATAC-seq profile, normalized coverage over promoter and coding regions ([4]; 30 and 60 μM Pitstop-2, FIG. 4C): improved the ATAC-seq profile over controls | diversity and uniqueness of whole genome sequencing coverage ([4]; Pitstop-2-treated samples over controls, FIG. 4B): better diversity and uniqueness | access to chromatin regions (sequenced libraries) ([4]; Pitstop-2 treatment): enhanced access to transposase-accessible intergenic and open chromatin regions | influx of FAM-labeled transposomes into nuclei [5]: increased influx of FAM-labeled transposomes into the nuclear space | Cq (Isolated nuclei [6]; Transposome Tn5, Pitstop 50 μM): 22.21 | Cq (Isolated nuclei [6]; Transposome Tn5, Pitstop 100 μM): 23.17 | Cq (Isolated nuclei [6]; Transposome Tn5, Pitstop 200 μM): 23.105 | Cq (Isolated nuclei [6]; Transposome Tn5, Pitstop 300 μM): 23.67 | Cq (Isolated nuclei [6]; Transposome TsTn5, Pitstop 50 μM): 18.32 | Cq (Isolated nuclei [6]; Transposome TsTn5, Pitstop 100 μM): 18.52 | Cq (Isolated nuclei [6]; Transposome TsTn5, Pitstop 200 μM): 18.55 | Cq (Isolated nuclei [6]; Transposome TsTn5, Pitstop 300 μM): 19.475 | boost of cDNA synthesis from nuclei over untreated nuclei (nuclei of K562 cells; 30 μM Pitstop-2): 4-5 fold | DeltaCt (no reverse transcription vs reverse transcription; relative cDNA synthesis efficiency) (nuclei of K562 cells; Nuclei +30 μM Pitstop-2): 7.19

CCCCCCCCCCCCOS(=O)(=O)[O-].[Na+] [SDS, sodium dodecyl sulfate]
DeltaCt (no reverse transcription vs reverse transcription; relative cDNA synthesis efficiency) (nuclei of K562 cells; Nuclei +0.1% SDS): 2.47

Source: patent publication US12416002B2, “Analysis system for orthogonal access to and tagging of biomolecules in cellular compartments” (ILLUMINA, INC., priority 2016, dated 2025)
